Results: patent EP0417637A2, “Use of dopamine autoreceptor agonists in the treatment of drug dependency” (BOEHRINGER INGELHEIM KG, priority 1989, dated 1991)
Read-outs that look alike come from different tables or passages of the source.

Assays:
[1] = test system: Affen; assay: Test 2: intravenous self-administration in monkeys receiving cocaine infusions (analogous to Test 1); conditions: BHT 920 0,001, 0,003 and 0,01 mg/kg/Injektion or cocaine; 3 monkeys, each dose available for 25 min or 20 infusions
[2] = test system: Affen; assay: Test 1: intravenous self-administration in monkeys experienced with sodium methohexital and saline; conditions: for Anzahl der Selbstinjektionen: average values, 3 monkeys, sessions of 130 min
[3] = Extensive animal tests on abuse potential (no method given); type: in vivo
Text: Das ist für die Therapie von großer Bedeutung.

[4] = test system: drogenabhängigen Affen; assay: Test 3: effect of BHT 920 on cocaine or alfentanil self-administration in drug-dependent monkeys; type: in vivo
Procedure: Nach Durchführung des Tests Nr. […] In weiteren analogen Versuchen (siehe beiliegende graphische Darstellungen für Affe 1, Affe 2 und Affe 3) wurde den drogenabhängigen Affen BHT 920 in 2 Dosen (0,01 und 0,1 mg/kg/Injektion) gleichzeitig zu steigenden Dosen von Kokain (2 Tiere) beziehungsweise Alfentanil (1 Tier) angeboten. […] Auch sehr hohe Dosen der suchterzeugenden Droge konnten diese Wirkung von BHT 920 nicht aufheben. Aufgrund von Verhaltensbeobachtungen während der oben beschriebenen Tests kann gesagt werden, daß die hemmende Wirkung von BHT 920 nicht durch eine allgemeine Sedation erklärt werden kann. Daraus kann geschlossen werden, daß die Verabreichung von BHT 920 das Bedürfnis nach Kokain mindert und die psychische Abhängigkeit von der Droge durchbricht.

[5] = test system: Affen; conditions: in vivo

Compound: C=CCN1CCc2nc(N)sc2CC1 [BHT 920, 6-Allyl-2-amino-5,6,7,8-tetrahydro-4H-thiazolo[4,5-d]azepin]
- Reaktionshäufigkeit [1]: in dem Bereich lag, der auch bei Kochsalzlösung beobachtet wurde
- Anzahl der Selbstinjektionen ([2]; 0,01 mg BHT 920/kg/Injektion i.v.): 10
- Anzahl der Selbstinjektionen ([2]; 0,05 mg BHT 920/kg/Injektion i.v.): 18
- Anzahl der Selbstinjektionen ([2]; 0,0001 mg BHT 920/kg/Injektion i.v.): 21
- Anzahl der Selbstinjektionen ([2]; 0,001 mg BHT 920/kg/Injektion i.v.): 19
- Reinforcement ([2]; at the doses used): kein Reinforcement
- Anzahl der genommenen Injektionen der Testsubstanz ([2]; four doses, each tested twice in each monkey, compared with saline and methohexital): nicht höher als die Anzahl der genommenen Injektionen von Kochsalzlösung
- Mißbrauchspotential [3]: kein Mißbrauchspotential
- Kokain - beziehungsweise Alfentanil - Selbstadministrationsrate ([4]; BHT 920 high dose 0,1 mg/kg/Injektion given together with rising doses of cocaine (2 animals) or alfentanil (1 animal)): auf Null sinken
- Kokain - beziehungsweise Alfentanil - Selbstadministrationsrate ([4]; BHT 920 lower dose 0,01 mg/kg/Injektion given together with rising doses of cocaine (2 animals) or alfentanil (1 animal)): deutlichen Abnahme
- durch Kokain verursachte Reaktionshäufigkeit ([4]; session following administration of BHT 920, in 2 of 3 animals, compared with cocaine in Test 2): wesentlich unter der in Test 2 für Kokain beobachtete Reaktionshäufigkeit

Compound: COC(=O)[C@H]1[C@@H](OC(=O)c2ccccc2)C[C@@H]2CC[C@H]1N2C [Kokain]
- Reaktionshäufigkeit [5]: dosenabhängige Erhöhung der Reaktionshäufigkeit

Compound: CCCN[C@H]1CCc2nc(N)sc2C1 [SND 919, (S)-2-Amino-4,5,6,7-tetrahydro-6-n-propylamino-benzothiazol]
- Mißbrauchspotential [3]: kein Mißbrauchspotential
